Earlier results, collected in patent publication US9433643B2, “Microbicidal composition comprising hydrogen peroxide and aminocarboxylic acids” (Truox, Inc., priority 2013, dated 2016).

What was measured:
[1] = at 25° C., reported
[2] = reported

| isoelectric point (pI) [1] | Compound | also measured |
| --- | --- | --- |
| 3.08 | N[C@@H](CCC(=O)O)C(=O)O [glutamic acid] |  |
| 6.11 | C[C@H](N)C(=O)O [alanine] |  |
| 2.98 | N[C@@H](CC(=O)O)C(=O)O [aspartic acid] |  |

Further lines, the molecule ahead of its results:

| Compound | isoelectric point (pI) [1] | also measured |
| --- | --- | --- |
| CC(=O)OO [Peroxyacetic acid] |  | pKa [2]: 4.76 |
| N=C(N)NCCC[C@H](N)C(=O)O [arginine] | 10.76 |  |
| NCC(=O)O [glycine, aminoethanoic acid] | 6.06 |  |
| O=C(O)CN(CCN(CC(=O)O)CC(=O)O)CC(=O)O [EDTA, ethylenediaminetetraacetic acid] |  | pK1 ([2]; carboxylic acid groups): 2.00; pK2 ([2]; carboxylic acid groups): 2.65; pK3 ([2]; carboxylic acid groups): 6.18; pK4 ([2]; carboxylic acid groups): 10.30 |
